IC50 data for 12 compounds are collected here from US20140088124A1, “IMIDAZOLE DERIVATIVES” (priority 2011, published 2014).

As usually defined, the IC50 is the concentration that inhibits the measured activity by half.

In this assay the target is T1, human DGAT1 enzyme expressed in Sf9 insect cells prepared as microsomes (Homo sapiens, UniProt O75907).
T1 construct: made in house; host or cells: Sf9 insect cells (microsomes)
T1 sequence (O75907 1-488): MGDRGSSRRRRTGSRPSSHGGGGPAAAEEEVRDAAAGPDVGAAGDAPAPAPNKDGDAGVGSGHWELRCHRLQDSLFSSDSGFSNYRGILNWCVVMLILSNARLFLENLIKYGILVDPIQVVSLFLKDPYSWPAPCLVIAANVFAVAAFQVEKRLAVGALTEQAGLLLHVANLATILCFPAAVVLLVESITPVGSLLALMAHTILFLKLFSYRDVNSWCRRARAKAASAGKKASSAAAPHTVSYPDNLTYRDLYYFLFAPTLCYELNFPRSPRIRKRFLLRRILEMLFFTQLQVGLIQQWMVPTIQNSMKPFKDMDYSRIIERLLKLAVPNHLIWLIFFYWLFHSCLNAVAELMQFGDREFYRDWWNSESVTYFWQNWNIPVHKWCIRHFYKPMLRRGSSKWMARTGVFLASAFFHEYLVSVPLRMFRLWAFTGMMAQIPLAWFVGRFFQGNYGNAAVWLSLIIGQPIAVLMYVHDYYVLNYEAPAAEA
Nature of the assay: in vitro assay to identify DGAT1 inhibitors ([14C]-palmitoyl-CoA, wheat germ agglutinin beads, TopCount). Type of assay: biochemical. As to conditions: 2 hours at room temperature. As for the experimental part: If compounds 141-162 were assayed they were assayed as follows: the in vitro assay to identify DGAT1 inhibitors uses human DGAT1 enzyme expressed in Sf9 insect cells prepared as microsomes. The reaction is initiated by the addition of the combined substrates 1,2-dioleoyl-sn-glycerol and [^14C]-palmitoyl-Co A and incubated with test compounds and microsomal membranes for 2 hours at room temperature. The assay is stopped by adding 0.5 mg wheat germ agglutinin beads in assay buffer with 1% Brij-35 and 1% 3-cholamidopropyldimethyl-ammonio-1-propane sulfonate. Plates are sealed with TopSeal and incubated for 18 hours to allow the radioactive triglyceride product to come into proximity with the bead. Plates are read on a TopCount instrument.
Percent inhibition was calculated as the percent of (test compound inhibition minus non-specific binding) relative to (total binding minus non-specific binding). IC50 values were determined by curve fitting the data to a Sigmoidal dose-response in GraphPad Prism utilizing the following equation:
Y=A+(B−A)/(1+10̂((Log IC50−X))),
where A and B are the bottom and top of the curve (highest and lowest inhibition), respectively, and X is the logarithm of concentration.
For `O=C(O)c1ccc(OCC2CCN(c3ccc(-c4nc5cc(Cl)ccc5[nH]4)cn3)CC2)cc1` [Example 150, 4-[[1-[5-(6-Chloro-1H-benzimidazol-2-yl)-2-pyridinyl]-4-piperidinyl]methoxy]benzoic acid], half-maximal inhibition (IC50) was put at 67 nM.
`COC(=O)c1ccccc1OCC1CCN(c2ccc(-c3nc4cc(C(F)(F)F)ccc4[nH]3)cn2)CC1` [Example 151] had an IC50 of 2700 nM.
Turning to `O=C(O)c1ccccc1OCC1CCN(c2ccc(-c3nc4cc(C(F)(F)F)ccc4[nH]3)cn2)CC1` [Example 152], the IC50 is 14 nM.
In the case of `O=C(O)c1ccccc1OCC1CCN(c2ccc(-c3nc4cc(Cl)ccc4[nH]3)cn2)CC1` [Example 153], the half-maximal inhibitory concentration (IC50) was 85 nM.
The figure for `O=C(O)c1ccc(F)cc1OCC1CCN(c2ccc(-c3nc4cc(Cl)ccc4[nH]3)cn2)CC1` [Example 154] is 58 nM; for `O=C(O)c1ccc(F)cc1OCC1CCN(c2ccc(-c3nc4cc(C(F)(F)F)ccc4[nH]3)cn2)CC1` [Example 155] it is 31 nM; for `Cc1ccc(C(=O)O)cc1OCC1CCN(c2ccc(-c3nc4cc(Cl)ccc4[nH]3)cn2)CC1` [Example 156] it is 12 nM.
With `Cc1ccc(C(=O)O)cc1OCC1CCN(c2ccc(-c3nc4cc(C(F)(F)F)ccc4[nH]3)cn2)CC1` [Example 157], the 50% inhibitory concentration (IC50) was 15 nM.
As for `CC(C)(COCC1CCN(c2ccc(-c3nc4cc(Cl)ccc4[nH]3)cn2)CC1)C(=O)O` [Example 159], the IC50 came to 108 nM.
With `CC(C)(COCC1CCN(c2ccc(-c3nc4cc(C(F)(F)F)ccc4[nH]3)cn2)CC1)C(=O)O` [Example 160], the concentration for half-maximal inhibition (IC50) stood at 84 nM.
`O=C(O)C1(COCC2CCN(c3ccc(-c4nc5cc(Cl)ccc5[nH]4)cn3)CC2)CCC1` [Example 161] yielded an IC50 of 95 nM.
Turning to `O=C(O)C1(COCC2CCN(c3ccc(-c4nc5cc(C(F)(F)F)ccc5[nH]4)cn3)CC2)CCC1` [Example 162], half-maximal inhibition (IC50) was put at 62 nM.
